Experiment in all cases: Post-emergence test experiment (greenhouse pot, spray at 2-3 leaf stage)
Format in all cases: in vivo
Holding throughout (conditions): 1000 g/ha; post-emergence spray at 2-3 leaf stage; assessed after 3 weeks; fresh weight inhibition rate

The subject of assay [1] is Echinochloa crusgalli. In short, it runs like this:
(§1)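 Weed seeds sown in soil-filled pots in greenhouse, sprayed at 2-3 leaf stage (2 weeks after sowing) with compound in acetone/tween-80 plus methyl oleate emulsible concentrate (1.5 L/ha) diluted in water. Fresh-weight growth inhibition scored after 3 weeks on 0-5 scale (5: >85%, 0: <5%).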

The test system of assay [2] is Galium spurium. In short, it runs like this: as §1
Assay [3] has as its system Digitaria sanguinalis. In short, it runs like this: as §1
Assay [4] has as its system Monochoria vaginalis. In short, it runs like this:
as §1

Assay [5] relates to Abutilon theophrasti. The procedure, abridged: as §1

Consider `CC(Oc1nc(F)c(Cl)c(N)c1Cl)C(=O)OCc1cccc(C(F)(F)F)c1` (stereo not drawn) [Compound 209], for which the “Activity level (growth inhibition rate) Echinochloa crusgalli” value in assay [1] is given as 5 (Level 5: the growth inhibition rate is greater than 85%). Also, the “Activity level (growth inhibition rate) Galium spurium” value in assay [2] is listed as 5 (Level 5: the growth inhibition rate is greater than 85%). Further, the “Activity level (growth inhibition rate) Digitaria sanguinalis” value in assay [3] is reported as 5 (Level 5: the growth inhibition rate is greater than 85%). Moreover, in assay [4], the “Activity level (growth inhibition rate) Monochoria Vaginalis” value is 5 (Level 5: the growth inhibition rate is greater than 85%). Besides, in assay [5], the “Activity level (growth inhibition rate) Abutilon theophrasti” value is listed as 5 (Level 5: the growth inhibition rate is greater than 85%).
Turning to `CC(Oc1nc(F)c(Cl)c(N)c1Cl)C(=O)OCc1ccc(C(F)(F)F)cc1` (stereo not drawn) [Compound 210], in assay [1], the “Activity level (growth inhibition rate) Echinochloa crusgalli” value is on record as 5 (Level 5: the growth inhibition rate is greater than 85%). The “Activity level (growth inhibition rate) Galium spurium” value in assay [2] is reported as 5 (Level 5: the growth inhibition rate is greater than 85%). Also, in assay [3], the “Activity level (growth inhibition rate) Digitaria sanguinalis” value is reported as 5 (Level 5: the growth inhibition rate is greater than 85%). Also, the “Activity level (growth inhibition rate) Monochoria Vaginalis” value in assay [4] was 5 (Level 5: the growth inhibition rate is greater than 85%). Besides, in assay [5], the “Activity level (growth inhibition rate) Abutilon theophrasti” value is given as 5 (Level 5: the growth inhibition rate is greater than 85%).
Regarding `CC(Oc1nc(F)c(Cl)c(N)c1Cl)C(=O)OCc1cccc2ccccc12` (stereo not drawn) [Compound 211], the “Activity level (growth inhibition rate) Echinochloa crusgalli” value in assay [1] was 5 (Level 5: the growth inhibition rate is greater than 85%). In addition, the “Activity level (growth inhibition rate) Galium spurium” value in assay [2] was 5 (Level 5: the growth inhibition rate is greater than 85%). Besides, in assay [3], the “Activity level (growth inhibition rate) Digitaria sanguinalis” value is reported as 5 (Level 5: the growth inhibition rate is greater than 85%). Further, in assay [4], the “Activity level (growth inhibition rate) Monochoria Vaginalis” value is recorded as 5 (Level 5: the growth inhibition rate is greater than 85%). Further, in assay [5], the “Activity level (growth inhibition rate) Abutilon theophrasti” value is given as 5 (Level 5: the growth inhibition rate is greater than 85%).
As to `CC(Oc1nc(F)c(Cl)c(N)c1Cl)C(=O)OCc1ccco1` (stereo not drawn) [Compound 212], in assay [1], the “Activity level (growth inhibition rate) Echinochloa crusgalli” value is 5 (Level 5: the growth inhibition rate is greater than 85%). Besides, in assay [2], the “Activity level (growth inhibition rate) Galium spurium” value is reported as 5 (Level 5: the growth inhibition rate is greater than 85%). The “Activity level (growth inhibition rate) Digitaria sanguinalis” value in assay [3] is 5 (Level 5: the growth inhibition rate is greater than 85%). Further, the “Activity level (growth inhibition rate) Monochoria Vaginalis” value in assay [4] is listed as 5 (Level 5: the growth inhibition rate is greater than 85%). The “Activity level (growth inhibition rate) Abutilon theophrasti” value in assay [5] is recorded as 5 (Level 5: the growth inhibition rate is greater than 85%).
For `CC(Oc1nc(F)c(Cl)c(N)c1Cl)C(=O)OCc1ccoc1` (stereo not drawn) [Compound 213], the “Activity level (growth inhibition rate) Echinochloa crusgalli” value in assay [1] was 5 (Level 5: the growth inhibition rate is greater than 85%). In addition, the “Activity level (growth inhibition rate) Galium spurium” value in assay [2] is recorded as 5 (Level 5: the growth inhibition rate is greater than 85%). Moreover, in assay [3], the “Activity level (growth inhibition rate) Digitaria sanguinalis” value was 5 (Level 5: the growth inhibition rate is greater than 85%). The “Activity level (growth inhibition rate) Monochoria Vaginalis” value in assay [4] was 5 (Level 5: the growth inhibition rate is greater than 85%). The “Activity level (growth inhibition rate) Abutilon theophrasti” value in assay [5] is given as 5 (Level 5: the growth inhibition rate is greater than 85%).
For the compound `CC(Oc1nc(F)c(Cl)c(N)c1Cl)C(=O)OCc1cccs1` (stereo not drawn) [Compound 214], the “Activity level (growth inhibition rate) Echinochloa crusgalli” value in assay [1] is 5 (Level 5: the growth inhibition rate is greater than 85%). In addition, the “Activity level (growth inhibition rate) Galium spurium” value in assay [2] is listed as 5 (Level 5: the growth inhibition rate is greater than 85%). The “Activity level (growth inhibition rate) Digitaria sanguinalis” value in assay [3] is given as 5 (Level 5: the growth inhibition rate is greater than 85%). Moreover, the “Activity level (growth inhibition rate) Monochoria Vaginalis” value in assay [4] was 5 (Level 5: the growth inhibition rate is greater than 85%). Moreover, the “Activity level (growth inhibition rate) Abutilon theophrasti” value in assay [5] is 5 (Level 5: the growth inhibition rate is greater than 85%).
Regarding `CC(Oc1nc(F)c(Cl)c(N)c1Cl)C(=O)OCc1ccsc1` (stereo not drawn) [Compound 215], the “Activity level (growth inhibition rate) Echinochloa crusgalli” value in assay [1] is reported as 5 (Level 5: the growth inhibition rate is greater than 85%). Moreover, the “Activity level (growth inhibition rate) Galium spurium” value in assay [2] is 5 (Level 5: the growth inhibition rate is greater than 85%). For the same compound, the “Activity level (growth inhibition rate) Digitaria sanguinalis” value in assay [3] is on record as 5 (Level 5: the growth inhibition rate is greater than 85%). Moreover, the “Activity level (growth inhibition rate) Monochoria Vaginalis” value in assay [4] is given as 5 (Level 5: the growth inhibition rate is greater than 85%). In assay [5], the “Activity level (growth inhibition rate) Abutilon theophrasti” value was 5 (Level 5: the growth inhibition rate is greater than 85%).
With `CC(Oc1nc(F)c(Cl)c(N)c1Cl)C(=O)OCc1ccnn1C` (stereo not drawn) [Compound 216], the “Activity level (growth inhibition rate) Echinochloa crusgalli” value in assay [1] is given as 5 (Level 5: the growth inhibition rate is greater than 85%). Moreover, the “Activity level (growth inhibition rate) Galium spurium” value in assay [2] was 5 (Level 5: the growth inhibition rate is greater than 85%). In addition, the “Activity level (growth inhibition rate) Digitaria sanguinalis” value in assay [3] is 5 (Level 5: the growth inhibition rate is greater than 85%). For the same compound, in assay [4], the “Activity level (growth inhibition rate) Monochoria Vaginalis” value is 5 (Level 5: the growth inhibition rate is greater than 85%). The “Activity level (growth inhibition rate) Abutilon theophrasti” value in assay [5] is listed as 5 (Level 5: the growth inhibition rate is greater than 85%).
For `CC(Oc1nc(F)c(Cl)c(N)c1Cl)C(=O)OCc1cnn(C)c1` (stereo not drawn) [Compound 217], the “Activity level (growth inhibition rate) Echinochloa crusgalli” value in assay [1] is recorded as 5 (Level 5: the growth inhibition rate is greater than 85%). Also, in assay [2], the “Activity level (growth inhibition rate) Galium spurium” value was 5 (Level 5: the growth inhibition rate is greater than 85%). Moreover, in assay [3], the “Activity level (growth inhibition rate) Digitaria sanguinalis” value was 5 (Level 5: the growth inhibition rate is greater than 85%). For the same compound, the “Activity level (growth inhibition rate) Monochoria Vaginalis” value in assay [4] is 5 (Level 5: the growth inhibition rate is greater than 85%). For the same compound, in assay [5], the “Activity level (growth inhibition rate) Abutilon theophrasti” value was 5 (Level 5: the growth inhibition rate is greater than 85%).
On to `Cc1ccccc1CSC(=O)C(C)Oc1nc(F)c(Cl)c(N)c1Cl` (stereo not drawn) [Compound 218], for which the “Activity level (growth inhibition rate) Echinochloa crusgalli” value in assay [1] was 5 (Level 5: the growth inhibition rate is greater than 85%). For the same compound, the “Activity level (growth inhibition rate) Galium spurium” value in assay [2] was 5 (Level 5: the growth inhibition rate is greater than 85%). The “Activity level (growth inhibition rate) Digitaria sanguinalis” value in assay [3] is 5 (Level 5: the growth inhibition rate is greater than 85%). In assay [4], the “Activity level (growth inhibition rate) Monochoria Vaginalis” value is 5 (Level 5: the growth inhibition rate is greater than 85%). The “Activity level (growth inhibition rate) Abutilon theophrasti” value in assay [5] is recorded as 5 (Level 5: the growth inhibition rate is greater than 85%).
Take `Cc1cccc(CSC(=O)C(C)Oc2nc(F)c(Cl)c(N)c2Cl)c1` (stereo not drawn) [Compound 219]: the “Activity level (growth inhibition rate) Echinochloa crusgalli” value in assay [1] is on record as 5 (Level 5: the growth inhibition rate is greater than 85%). Further, the “Activity level (growth inhibition rate) Galium spurium” value in assay [2] was 5 (Level 5: the growth inhibition rate is greater than 85%). Moreover, the “Activity level (growth inhibition rate) Digitaria sanguinalis” value in assay [3] is given as 5 (Level 5: the growth inhibition rate is greater than 85%). In assay [4], the “Activity level (growth inhibition rate) Monochoria Vaginalis” value is listed as 5 (Level 5: the growth inhibition rate is greater than 85%). For the same compound, the “Activity level (growth inhibition rate) Abutilon theophrasti” value in assay [5] is 5 (Level 5: the growth inhibition rate is greater than 85%).
On to `Cc1ccc(CSC(=O)C(C)Oc2nc(F)c(Cl)c(N)c2Cl)cc1` (stereo not drawn) [Compound 220], for which, in assay [1], the “Activity level (growth inhibition rate) Echinochloa crusgalli” value was 5 (Level 5: the growth inhibition rate is greater than 85%). In addition, the “Activity level (growth inhibition rate) Galium spurium” value in assay [2] is 5 (Level 5: the growth inhibition rate is greater than 85%). Also, the “Activity level (growth inhibition rate) Digitaria sanguinalis” value in assay [3] is 5 (Level 5: the growth inhibition rate is greater than 85%). Moreover, the “Activity level (growth inhibition rate) Monochoria Vaginalis” value in assay [4] is given as 5 (Level 5: the growth inhibition rate is greater than 85%). Moreover, the “Activity level (growth inhibition rate) Abutilon theophrasti” value in assay [5] was 5 (Level 5: the growth inhibition rate is greater than 85%).
Consider `CC(Oc1nc(F)c(Cl)c(N)c1Cl)C(=O)SCc1ccccc1F` (stereo not drawn) [Compound 221], for which, in assay [1], the “Activity level (growth inhibition rate) Echinochloa crusgalli” value is reported as 5 (Level 5: the growth inhibition rate is greater than 85%). Also, in assay [2], the “Activity level (growth inhibition rate) Galium spurium” value is recorded as 5 (Level 5: the growth inhibition rate is greater than 85%). The “Activity level (growth inhibition rate) Digitaria sanguinalis” value in assay [3] is 5 (Level 5: the growth inhibition rate is greater than 85%). The “Activity level (growth inhibition rate) Monochoria Vaginalis” value in assay [4] is 5 (Level 5: the growth inhibition rate is greater than 85%). For the same compound, the “Activity level (growth inhibition rate) Abutilon theophrasti” value in assay [5] is reported as 5 (Level 5: the growth inhibition rate is greater than 85%).
With `CC(Oc1nc(F)c(Cl)c(N)c1Cl)C(=O)SCc1cccc(F)c1` (stereo not drawn) [Compound 222], the “Activity level (growth inhibition rate) Echinochloa crusgalli” value in assay [1] is recorded as 5 (Level 5: the growth inhibition rate is greater than 85%). In addition, the “Activity level (growth inhibition rate) Galium spurium” value in assay [2] is 5 (Level 5: the growth inhibition rate is greater than 85%). Further, the “Activity level (growth inhibition rate) Digitaria sanguinalis” value in assay [3] is listed as 5 (Level 5: the growth inhibition rate is greater than 85%). In assay [4], the “Activity level (growth inhibition rate) Monochoria Vaginalis” value is on record as 5 (Level 5: the growth inhibition rate is greater than 85%). The “Activity level (growth inhibition rate) Abutilon theophrasti” value in assay [5] is on record as 5 (Level 5: the growth inhibition rate is greater than 85%).
For the compound `CC(Oc1nc(F)c(Cl)c(N)c1Cl)C(=O)SCc1ccc(F)cc1` (stereo not drawn) [Compound 223], the “Activity level (growth inhibition rate) Echinochloa crusgalli” value in assay [1] is 5 (Level 5: the growth inhibition rate is greater than 85%). The “Activity level (growth inhibition rate) Galium spurium” value in assay [2] was 5 (Level 5: the growth inhibition rate is greater than 85%). Also, the “Activity level (growth inhibition rate) Digitaria sanguinalis” value in assay [3] was 5 (Level 5: the growth inhibition rate is greater than 85%). Besides, the “Activity level (growth inhibition rate) Monochoria Vaginalis” value in assay [4] was 5 (Level 5: the growth inhibition rate is greater than 85%). In assay [5], the “Activity level (growth inhibition rate) Abutilon theophrasti” value was 5 (Level 5: the growth inhibition rate is greater than 85%).

(Values after US12049450B2, “Pyridyloxy-carboxylate derivative and preparation method therefor, herbicidal composition, and use” (Qingdao Kingagroot Chemical Compound Co., Ltd., priority 2018, dated 2024).)
